US9061060B2, “Deuterated benzylbenzene derivatives and methods of use” (Theracos Inc., priority 2008, dated 2015)

Columns and labels:
CYP1A2 = target: T1, CYP1A2 (Homo sapiens, UniProt P05177); experiment: P450-Glo CYP screening kit, CYP1A2 inhibition; format: in vitro ADME; conditions: luminescence, read-out: IC50 1A2
T1 construct: purchased Promega
T1 sequence (P05177 1-516): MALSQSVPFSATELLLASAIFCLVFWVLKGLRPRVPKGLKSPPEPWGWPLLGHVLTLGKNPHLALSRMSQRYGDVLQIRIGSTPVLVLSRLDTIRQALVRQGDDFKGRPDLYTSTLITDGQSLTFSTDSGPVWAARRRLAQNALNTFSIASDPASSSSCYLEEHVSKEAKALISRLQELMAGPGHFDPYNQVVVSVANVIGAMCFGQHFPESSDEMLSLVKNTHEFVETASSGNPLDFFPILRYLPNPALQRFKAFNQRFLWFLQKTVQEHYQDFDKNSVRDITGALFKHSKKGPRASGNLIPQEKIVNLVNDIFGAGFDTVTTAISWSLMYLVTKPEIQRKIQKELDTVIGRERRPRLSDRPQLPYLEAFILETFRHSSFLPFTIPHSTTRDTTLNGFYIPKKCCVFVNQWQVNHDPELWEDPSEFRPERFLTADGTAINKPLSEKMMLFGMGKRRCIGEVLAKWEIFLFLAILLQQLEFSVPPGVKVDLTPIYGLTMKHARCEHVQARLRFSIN
From the text: (§1) P450-Glo™ CYP Screening Kits for CYP1A2, CYP3A4 and CYP2C19 were purchased from Promega. […] Luminescence was quantified using a Victor 3 spectrophotometer (PerkinElmer).

CYP3A4 = target: T2, CYP3A4 (Homo sapiens, UniProt P08684); experiment: P450-Glo CYP screening kit, CYP3A4 inhibition; format: in vitro ADME; conditions: luminescence, read-out: IC50 3A4
T2 construct: purchased Promega
From the text: as §1

CYP2C19 = target: T3, CYP2C19 (Homo sapiens, UniProt P33261); experiment: P450-Glo CYP screening kit, CYP2C19 inhibition; format: in vitro ADME; conditions: luminescence, read-out: IC50 2C19
T3 construct: purchased Promega
From the text: as §1

SD rats = experiment: Urinary glucose excretion in SD rats; format: in vivo; conditions: 1 mg/kg oral
Procedure: Each test compound was dissolved in 30% PEG400 and administered orally to overnight-fasted SD rats by gavage at the dose level of 1 mg/kg. Control rats were given 30% PEG400 only. One hour post dosing, glucose solution (2 g/kg, 10 mL/kg) was administered by oral gavage. Urine was collected within metabolic cages from 0 to 4 hours, and 4 to 24 hours post-dosing for urine volume and glucose measurement. Food was removed 16 hours before dosing and then provided 4 hours after dosing. Water was supplied ad libitum. The concentration of urinary glucose was determined at 4 hours and 24 hours post-dose using a biochemistry analyzer. Results were recorded for the periods 0-4 hours, 4-24 hours and 0-24 hours, and expressed as a percentage of the urinary glucose excretion (UGE) seen with reference compound A, which was run as a positive control in all experiments.

beagle dogs = experiment: Urinary glucose excretion in beagle dogs; format: in vivo; conditions: separate experiment (Table 4A)
Procedure: Each test compound was dissolved in 10% PEG400 and administered orally to overnight-fasted beagle dogs by gavage at the dose level of 0.03 mg/kg. Control dogs were given 10% PEG400 only. One hour post dosing, glucose solution (2 g/kg, 5 mL/kg) was administered by oral gavage. Urine was collected within metabolic cages from 0 to 8 hours, and 8 to 24 hours post-dosing for urine volume and glucose measurement. Food was removed 16 hours before dosing and then provided 3 hours after dosing. Water was supplied ad libitum. The concentration of urinary glucose was determined at 8 hours and 24 hours post-dose using a biochemistry analyzer.

[1] = Metabolism in SD rats: distribution of metabolites in urine; format: in vivo; conditions: male SD rats, 50 mg/kg oral, five consecutive days, HPLC
Procedure: Each test compound was dissolved in 30% PEG400 and administered orally to male SD rats by gavages at the dose level of 50 mg/kg (when using co-crystals, the weight calculation was based on free drug) for five consecutive days. Control rats were given 30% PEG400 only. All rats were housed in metabolic cages individually. Food and water were supplied ad libitum. Clinical observations (with attention to diarrhea symptoms) were performed twice daily. Food and water consumption were determined daily. Urine was collected pre-determined intervals: pre-dose, 0-4 hours, 4-8 hours, and 8-24 hours post-dose. Metabolites were analyzed and identified by LC/MS. The structures of the metabolites were confirmed by re-synthesis or isolation from the urine by preparative HPLC and NMR analysis. On day 6, all animals were sacrificed and gross necropsy was performed. The urine from two rats for each test compound was collected and pooled. The samples were diluted (1 mL urine in 4 mL of methanol) and analyzed by LC-MS: Waters 2695 Separations Module equipped with a Waters 2996 Photodiode Array Detector and a Waters Micromass ZQ Detector; Waters XTerra C18 3.5 μm, 20 mm×2.1 mm column, 1.0 mL/min, detection at 190-400 nm; 1.7 min gradient 10-50% A, followed by 1.8 min gradient 50-95% A, hold 1 min at 95% A; solvent A: 100% acetonitrile+0.045% formic acid; solvent B: Milli-Q water+0.1% formic acid. The urine samples were analyzed from 0-4 hours, 4-8 hours, 8-24 hours and 0-24 hours after administration. The ratio of metabolites was highly consistent within each time for each rat. The metabolites were identified by mass then re-synthesized to confirm their identity and the relative distribution was assayed using HPLC. […] See also FIGS. 1, 2A-2C, 3A-3D, and 4A-4C.

human SGLT1 = target: T4, human SGLT1 (Homo sapiens, UniProt P13866); conditions: read-out: SGLT1 IC50; COS-7 cells expressing human SGLT1; 25% human serum; 2 hours
T4 sequence (P13866 1-664): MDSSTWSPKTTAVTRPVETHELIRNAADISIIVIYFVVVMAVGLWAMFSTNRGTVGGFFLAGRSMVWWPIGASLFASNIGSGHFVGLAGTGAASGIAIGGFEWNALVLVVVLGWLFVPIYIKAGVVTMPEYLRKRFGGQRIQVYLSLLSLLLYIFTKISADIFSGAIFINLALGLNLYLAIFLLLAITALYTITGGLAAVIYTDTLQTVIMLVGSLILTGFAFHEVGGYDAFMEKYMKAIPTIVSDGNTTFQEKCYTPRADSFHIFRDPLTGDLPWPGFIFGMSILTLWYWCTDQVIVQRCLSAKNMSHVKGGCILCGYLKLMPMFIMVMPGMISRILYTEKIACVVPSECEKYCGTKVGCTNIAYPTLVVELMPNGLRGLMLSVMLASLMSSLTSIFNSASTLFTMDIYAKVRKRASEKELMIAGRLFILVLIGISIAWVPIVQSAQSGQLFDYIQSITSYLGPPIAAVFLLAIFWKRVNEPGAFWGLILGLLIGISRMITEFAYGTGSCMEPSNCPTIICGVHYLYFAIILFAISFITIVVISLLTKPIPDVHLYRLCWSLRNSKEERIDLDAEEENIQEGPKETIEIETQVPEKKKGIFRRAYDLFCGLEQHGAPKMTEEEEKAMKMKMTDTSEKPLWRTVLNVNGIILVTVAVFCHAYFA
Procedure: Full-length human SGLT1 cDNA in the pDream2.1 expression vector was obtained from GenScript Corporation and propagated in Escherichia coli strain DH5α using Luria-Bertani (LB) medium containing ampicillin. Plasmid DNA was isolated using the QIAGEN Plasmid Midi Kit (QIAGEN Inc.). […] Transfected cells were stored in DMEM containing 10% dimethyl sulfoxide (DMSO) at −80° C.
Cells expressing SGLT1 or SGLT2 were seeded on 96-well ScintiPlate scintillating plates (PerkinElmer, Inc.) in DMEM containing 10% FBS (1×10^5 cells per well in 1001 medium) incubated at 37° C. under 5% CO2 for 48 hours prior to the assay. […] Cells were washed twice with 150 μl of wash buffer (137 mM N-methylglucamine, 10 mM Tris/Hepes, pH 7.2) and methyl-α-D-[U-^14C]glucopyranoside uptake was quantified using a TopCount scintillation counter (PerkinElmer, Inc.). Sodium-dependent glucopyranoside uptake was measured by subtracting the values obtained with sodium-free buffer from those obtained using sodium buffer (average of triplicate determinations). The IC50 for SGLT2 and SGLT1 were determined, and the selectivity for SGLT2 inhibition was calculated by dividing the SGLT1 IC50 by the SGLT2 IC50.

T3 sequence (P33261 whole entry): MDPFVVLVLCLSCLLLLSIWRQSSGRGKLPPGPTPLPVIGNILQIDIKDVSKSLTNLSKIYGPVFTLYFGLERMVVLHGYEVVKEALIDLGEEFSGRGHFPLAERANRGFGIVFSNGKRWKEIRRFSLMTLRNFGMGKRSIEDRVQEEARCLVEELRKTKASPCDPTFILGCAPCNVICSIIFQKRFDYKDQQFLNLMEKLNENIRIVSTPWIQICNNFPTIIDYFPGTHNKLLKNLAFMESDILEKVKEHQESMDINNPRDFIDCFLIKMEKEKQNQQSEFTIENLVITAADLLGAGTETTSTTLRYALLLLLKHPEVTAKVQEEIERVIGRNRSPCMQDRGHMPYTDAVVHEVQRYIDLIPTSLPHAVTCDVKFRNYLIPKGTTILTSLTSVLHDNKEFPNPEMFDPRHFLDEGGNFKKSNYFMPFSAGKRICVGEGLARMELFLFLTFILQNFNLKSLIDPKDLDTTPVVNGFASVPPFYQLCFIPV
T2 sequence (P08684 whole entry): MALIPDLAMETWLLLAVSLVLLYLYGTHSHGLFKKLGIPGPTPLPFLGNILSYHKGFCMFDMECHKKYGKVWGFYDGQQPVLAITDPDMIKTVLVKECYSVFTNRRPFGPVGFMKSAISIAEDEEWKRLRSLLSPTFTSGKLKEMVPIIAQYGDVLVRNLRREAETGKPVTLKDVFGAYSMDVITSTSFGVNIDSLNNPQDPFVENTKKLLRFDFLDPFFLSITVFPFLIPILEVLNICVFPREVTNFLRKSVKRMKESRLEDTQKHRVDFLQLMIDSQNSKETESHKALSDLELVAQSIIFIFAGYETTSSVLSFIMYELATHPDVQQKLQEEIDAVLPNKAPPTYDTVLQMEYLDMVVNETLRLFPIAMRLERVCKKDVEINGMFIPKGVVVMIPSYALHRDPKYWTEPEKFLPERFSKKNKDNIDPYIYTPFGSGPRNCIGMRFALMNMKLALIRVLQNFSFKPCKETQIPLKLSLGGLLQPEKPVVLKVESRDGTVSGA

IC50 (CYP1A2) [µM] | IC50 (CYP3A4) [µM] | IC50 (CYP2C19) [µM] | Distribution of Metabolites in Urine (% of total), Peak 1 (Parent) [1] [%] | IC50 (human SGLT1) [µM] | Structure (SMILES) | Urinary Glucose Excretion in Rats, 0-4 h, % relative to Ref A (SD rats; 0-4 h) [%] | Urinary Glucose Excretion in Rats, 0-24 h, % relative to Ref A (SD rats) [%] | Urinary Glucose Excretion in Rats, 4-24 h, % relative to Ref A (SD rats; 4-24 h) [%] | Urinary Glucose Excretion in Rats, 0-4 h (mean ± SD) (SD rats; glucose 2 g/kg 1 h post dose, 0-4 h) [mg] | Urinary Glucose Excretion in Rats, 0-24 h (mean ± SD) (SD rats; glucose 2 g/kg 1 h post dose) [mg] | Urinary Glucose Excretion in Rats, 4-24 h (mean ± SD) (SD rats; glucose 2 g/kg 1 h post dose, 4-24 h) [mg] | Urinary Glucose Excretion in Dogs, 0-8 h (mean ± SD) (beagle dogs; 0-8 h) [mg] | Urinary Glucose Excretion in Dogs, 0-24 h (mean ± SD) (beagle dogs) [mg] | Urinary Glucose Excretion in Dogs, 8-24 h (mean ± SD) (beagle dogs) [mg]
> 1000 | 250 | 195 | 72 | 0.54 | COc1ccc(Cc2cc([C@@H]3O[C@H](CO)[C@@H](O)[C@H](O)[C@H]3O)ccc2Cl)cc1 [Ref B, (2S,3R,4R,5S,6R)-2-(4-chloro-3-(4-methoxybenzyl)phenyl)-6-(hydroxymethyl)tetrahydro-2H-pyran-3,4,5-triol, reference compound] | 122 | 78 | 74 | 233 ± 35 | 1889 ± 361 | 1657 ± 354 | 3322 ± 464 | 16726 ± 1507 | 13404 ± 1888
> 1000 | > 1000 | 355 | 87 | 0.82 | [2H]C([2H])([2H])Oc1ccc(C([2H])([2H])c2cc([C@@H]3O[C@H](CO)[C@@H](O)[C@H](O)[C@H]3O)ccc2Cl)cc1 [compound 19, (2S,3R,4R,5S,6R)-2-(4-chloro-3-((4-(methoxy-d3)phenyl)methyl-d2)phenyl)-6-(hydroxymethyl)tetrahydro-2H-pyran-3,4,5-triol] |  | 83 |  |  | 2096 ± 332 |  |  | 15928 ± 321 | 12516 ± 485
